# Data: US5210193A, “Piperazine derivatives” (American Cyanamid Company, priority 1990, dated 1993)
# Several values for one entry are separate records, joined by “and”; a condition that tells them apart may be missing. Identical values can stand only once. Like-named read-outs stand apart in the source and are kept apart here.
# What was measured:
# [1] = test system: Serratia marcescens K 84-18; assay: in vitro antibacterial MIC, agar plate dilution; assay type: cell-based; conditions: 18 hours, 35° C.
# In short: (§1)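 MIC, mcg/ml: lowest concentration with no visible growth after 18 h incubation at 35° C. Mueller-Hinton agar dilution plates; ~10^4 CFU inoculum via Steers replicating device.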
# [2] = test system: Klebsiella pneumoniae IO 83-5; assay: in vitro antibacterial MIC, agar plate dilution; assay type: cell-based; conditions: 18 hours, 35° C.
# In short: as §1
# [3] = test system: Escherichia coli CMC 84-11; assay: in vitro antibacterial MIC, agar plate dilution; assay type: cell-based; conditions: Escherichia coli, CMC8411, 18 h, 35° C., read-out: MIC
# In short: as §1
# Escherichia coli LL 311 = assay: in vitro antibacterial MIC, agar plate dilution; assay type: cell-based; conditions: Escherichia coli, LL311, 18 h, 35° C., read-out: MIC
# In short: as §1
# [4] = test system: Morganella morganii CMC 84-37; assay: in vitro antibacterial MIC, agar plate dilution; assay type: cell-based; conditions: 18 hours, 35° C.
# In short: as §1
# [5] = test system: Streptococcus faecalis UCI 85-30; assay: in vitro antibacterial MIC, agar plate dilution; assay type: cell-based; conditions: 18 hours, 35° C.
# In short: as §1
# [6] = test system: Streptococcus faecalis UCI 85-19; assay: in vitro antibacterial MIC, agar plate dilution; assay type: cell-based; conditions: 18 hours, 35° C.
# In short: as §1
# [7] = test system: Enterobacter cloacae K 84-10; assay: in vitro antibacterial MIC, agar plate dilution; assay type: cell-based; conditions: 18 hours, 35° C.
# In short: as §1
# [8] = test system: Escherichia coli ATCC 25922; assay: in vitro antibacterial MIC, agar plate dilution; assay type: cell-based; conditions: 35° C.
# In short: as §1
# Citrobacter div. K 82-24 = assay: in vitro antibacterial MIC, agar plate dilution; assay type: cell-based; conditions: 18 hours, 35° C.
# In short: as §1
# [9] = test system: Pseudomonas aeruginosa K 84-16; assay: in vitro antibacterial MIC, agar plate dilution; assay type: cell-based; conditions: 18 hours, 35° C.
# In short: as §1
# [10] = test system: Escherichia coli VGH 84-19; assay: in vitro antibacterial MIC, agar plate dilution; assay type: cell-based; conditions: 18 hours, 35° C.
# In short: as §1
# [11] = test system: Serratia marcescens CMC 83-74; assay: in vitro antibacterial MIC, agar plate dilution; assay type: cell-based; conditions: 18 hours, 35° C.
# In short: as §1
# [12] = test system: Streptococcus faecalis VGH 84-69; assay: in vitro antibacterial MIC, agar plate dilution; assay type: cell-based; conditions: 18 hours, 35° C.
# In short: as §1
# [13] = test system: Staphylococcus aureus K 82-26; assay: in vitro antibacterial MIC, agar plate dilution; assay type: cell-based; conditions: 18 hours, 35° C.
# In short: as §1
# [14] = test system: Staphylococcus aureus CMC 83-131; assay: in vitro antibacterial MIC, agar plate dilution; assay type: cell-based; conditions: 18 hours, 35° C.
# In short: as §1
# [15] = test system: Pseudomonas aeruginosa VGH 84-4; assay: in vitro antibacterial MIC, agar plate dilution; assay type: cell-based; conditions: 35° C.
# In short: as §1
# [16] = test system: Pseudomonas aeruginosa CMC 83-20; assay: in vitro antibacterial MIC, agar plate dilution; assay type: cell-based; conditions: 18 hours, 35° C.
# In short: as §1
# [17] = test system: Proteus rettgeri IO 83-21; assay: in vitro antibacterial MIC, agar plate dilution; assay type: cell-based; conditions: 18 hours, 35° C.
# In short: as §1
# [18] = test system: Serratia marcescens VGH 84-30; assay: in vitro antibacterial MIC, agar plate dilution; assay type: cell-based; conditions: Serratia marcescens, VGH8430, 18 h, 35° C., read-out: MIC
# In short: as §1
# [19] = test system: Enterobacter cloacae MOR 84-30; assay: in vitro antibacterial MIC, agar plate dilution; assay type: cell-based; conditions: 18 hours, 35° C.
# In short: as §1
# [20] = test system: Klebsiella pneumoniae CMC 84-31; assay: in vitro antibacterial MIC, agar plate dilution; assay type: cell-based; conditions: 18 hours, 35° C.
# In short: as §1
# [21] = test system: Escherichia coli CMC 84-50; assay: in vitro antibacterial MIC, agar plate dilution; assay type: cell-based; conditions: 18 hours, 35° C.
# In short: as §1
# [22] = test system: Pseudomonas aeruginosa LL-1244; assay: in vitro antibacterial MIC, agar plate dilution; assay type: cell-based; conditions: 18 hours, 35° C.
# In short: as §1
# [23] = test system: Morganella morganii CMC 84-38; assay: in vitro antibacterial MIC, agar plate dilution; assay type: cell-based; conditions: 18 hours, 35° C.
# In short: as §1
# [24] = test system: Streptococcus faecalis VGH 84-65; assay: in vitro antibacterial MIC, agar plate dilution; assay type: cell-based; conditions: 18 hours, 35° C.
# In short: as §1
# [25] = test system: Pseudomonas aeruginosa VGH 84-3; assay: in vitro antibacterial MIC, agar plate dilution; assay type: cell-based; conditions: 18 hours, 35° C.
# In short: as §1
# [26] = test system: Staphylococcus aureus Smith; assay: in vitro antibacterial MIC, agar plate dilution; assay type: cell-based; conditions: 35° C.
# In short: as §1
# [27] = test system: Enterobacter cloacae VGH 84-39; assay: in vitro antibacterial MIC, agar plate dilution; assay type: cell-based; conditions: 18 hours, 35° C.
# In short: as §1
# [28] = test system: Staphylococcus aureus VGH 84-45; assay: in vitro antibacterial MIC, agar plate dilution; assay type: cell-based; conditions: 18 hours, 35° C.
# In short: as §1
# [29] = test system: Staphylococcus aureus VGH 84-47; assay: in vitro antibacterial MIC, agar plate dilution; assay type: cell-based; conditions: 18 hours, 35° C.
# In short: as §1
# [30] = test system: Escherichia coli MOR 84-20; assay: in vitro antibacterial MIC, agar plate dilution; assay type: cell-based; conditions: 18 hours, 35° C.
# In short: as §1
# [31] = test system: Providencia stuarti CMC 83-3; assay: in vitro antibacterial MIC, agar plate dilution; assay type: cell-based; conditions: 18 hours, 35° C.
# In short: as §1
# [32] = test system: Morganella morganii VHG 84-12; assay: in vitro antibacterial MIC, agar plate dilution; assay type: cell-based; conditions: Morganella morganii VHG 84-12 (VGH 84-12 for Example 131); 18 hours, 35° C.
# In short: as §1
# [33] = test system: Proteus rettgeri CMC 84-41; assay: in vitro antibacterial MIC, agar plate dilution; assay type: cell-based; conditions: Providencia rettgeri, CMC8441, 18 h, 35° C., read-out: MIC
# In short: as §1
# [34] = test system: Klebsiella pneumoniae MOR 84-24; assay: in vitro antibacterial MIC, agar plate dilution; assay type: cell-based; conditions: 18 hours, 35° C.
# In short: as §1
# [35] = test system: Morganella morganii MOR 84-45; assay: in vitro antibacterial MIC, agar plate dilution; assay type: cell-based; conditions: 18 hours, 35° C.
# In short: as §1
# [36] = test system: Streptococcus faecalis CMC 83-120; assay: in vitro antibacterial MIC, agar plate dilution; assay type: cell-based; conditions: 18 hours, 35° C.
# In short: as §1
# [37] = test system: Serratia marcescens MOR 84-41; assay: in vitro antibacterial MIC, agar plate dilution; assay type: cell-based; conditions: 18 hours, 35° C.
# In short: as §1
# [38] = test system: Enterobacter aerogenes VGH 84-36; assay: in vitro antibacterial MIC, agar plate dilution; assay type: cell-based; conditions: Klebsiella aerogenes, VGH8436, 18 hours, 35° C., read-out: MIC
# In short: as §1
# [39] = test system: Klebsiella pneumoniae MOR 84-4; assay: in vitro antibacterial MIC, agar plate dilution; assay type: cell-based; conditions: Klebsiella pneumoniae, MOR844, 18 h, 35° C., read-out: MIC
# In short: as §1
# Klebsiella pneumoniae AD [40] = assay: in vitro antibacterial MIC, agar plate dilution; assay type: cell-based; conditions: Klebsiella pneumoniae, 18 h, 35° C., read-out: MIC
# In short: as §1
# [41] = test system: Staphylococcus aureus ATCC 25913; assay: in vitro antibacterial MIC, agar plate dilution; assay type: cell-based; conditions: ATCC25913, 18 hours, 35° C.
# In short: as §1
# [42] = test system: Enterobacter cloacae VGH 84-37; assay: in vitro antibacterial MIC, agar plate dilution; assay type: cell-based; conditions: Enterobacter cloacae, VGH8437, 18 h, 35° C., read-out: MIC
# In short: as §1
# [43] = test system: Morganella morganii VGH 84-11; assay: in vitro antibacterial MIC, agar plate dilution; assay type: cell-based; conditions: VGH8411, 18 hours, 35° C., read-out: MIC
# In short: as §1
# Klebsiella pneumoniae AD [44] = assay: in vivo antibacterial activity, survival of infected mice (Table II); design: species or system Charles River CD-1 mice; conditions: subcutaneous
# Protocol: (§2) Charles River CD-1 mice were infected with either Klebsiella pneumoniae AD or Staphylococcus aureus Smith. A single subcutaneous dose of the test compound was administered 1/2 hour after infection. […] The results appear in Tables II and III, wherein the representative test compounds are identified by the number of their hereinafter described examples.
# [45] = test system: Staphylococcus aureus Smith; assay: in vivo antibacterial activity, survival of infected mice (Table III); design: species or system Charles River CD-1 mice; conditions: subcutaneous
# Protocol: as §2
structure (smiles),measurement,setting,value
"O=C(O)c1cn(C2CC2)c2cc(N3CCNC(C4CC4)C3)c(F)cc2c1=O (stereo not drawn) [Example 124, 1-Cyclopropyl-7-(3-cvclopropyl-1-piperazinyl)-6-fluoro-1,4-dihydro-4-oxo-3-quinolinecarboxvlic acid,]",MIC,[1],0.12 µg/mL
same,MIC,[2],0.06 µg/mL
same,MIC,[3],0.03 µg/mL
same,MIC,Escherichia coli LL 311,0.03 µg/mL
same,MIC,[4],0.06 µg/mL
same,MIC,[5],2 µg/mL
same,MIC,[6],2 µg/mL
same,MIC,[7],0.015 µg/mL
same,MIC,[8]; 18 hours,< 0.015 µg/mL and 0.008 µg/mL
same,MIC,Citrobacter div. K 82-24,0.03 µg/mL
same,MIC,[9],4 µg/mL
same,MIC,[10],0.015 µg/mL
same,MIC,[11],8 µg/mL
same,MIC,[12],1 µg/mL
same,MIC,[13],1 µg/mL
same,MIC,[14],0.5 µg/mL
same,MIC,[15]; 18 hours,2 µg/mL
same,MIC,[16],4 µg/mL
same,MIC,[17],0.12 µg/mL
same,MIC,[18],2 µg/mL
same,MIC,[19],0.5 µg/mL
same,MIC,[20],0.03 µg/mL
same,MIC,[21],0.03 µg/mL
same,MIC,[22],4 µg/mL
same,MIC,[23],0.03 µg/mL
same,MIC,[24],1 µg/mL
same,MIC,[25],8 µg/mL
same,MIC,[26]; 18 hours,0.06 µg/mL
same,MIC,[27],0.03 µg/mL
same,MIC,[28],0.06 µg/mL
same,MIC,[29],0.25 µg/mL
same,MIC,[30],0.015 µg/mL
same,MIC,[31],4 µg/mL
same,MIC,[32],0.12 µg/mL
same,MIC,[33],0.06 µg/mL
same,MIC,[34],0.06 µg/mL
same,MIC,[35],0.015 µg/mL
same,MIC,[36],1 µg/mL
same,MIC,[37],0.12 µg/mL
"CCn1cc(C(=O)O)c(=O)c2cc(F)c(N3CCNC(c4cc5cc(Cl)ccc5o4)C3)cc21 (stereo not drawn) [Example 18, 7-[3-(5-Chloro-2-benzofuranyl)-1-piperazinyl]-1-ethyl-6-fluoro-1,4-dihydro-4-oxo-3-quinolinecarboxylic acid]",MIC,[3],16 µg/mL
same,MIC,"[8]; Escherichia coli, ATCC25922, 18 h, read-out: MIC",16 µg/mL
same,MIC,[38],128 µg/mL
same,MIC,[39],32 µg/mL
same,MIC,"[15]; Pseudomonas aeruginosa, VGH844, 18 h, read-out: MIC",> 256 µg/mL
same,MIC,Klebsiella pneumoniae AD [40],16 µg/mL
same,MIC,[41],2 µg/mL
same,MIC,[42],16 µg/mL
same,MIC,[43],16 µg/mL
same,MIC,"[26]; Staphylococcus aureus, 18 h, read-out: MIC",≤ 0.12 µg/mL
same,MIC,[33],16 µg/mL
same,Survival Ratio 7 Days After Infection,Klebsiella pneumoniae AD [44]; 0.25 mg/kg single dose,0/5
same,Survival Ratio 7 Days After Infection,Klebsiella pneumoniae AD [44]; 1 mg/kg single dose,0/5
same,Survival Ratio 7 Days After Infection,Klebsiella pneumoniae AD [44]; 4 mg/kg single dose,1/5
same,Survival Ratio 7 Days After Infection,Klebsiella pneumoniae AD [44]; 16 mg/kg single dose,4/5
same,Survival Ratio 7 Days After Infection,Klebsiella pneumoniae AD [44]; 64 mg/kg single dose,5/5
same,Survival Ratio 7 Days After Infection,[45]; 0.5 mg/kg single dose,0/5
same,Survival Ratio 7 Days After Infection,[45]; 1 mg/kg single dose,0/5
same,Survival Ratio 7 Days After Infection,[45]; 2 mg/kg single dose,0/5
same,Survival Ratio 7 Days After Infection,[45]; 4 mg/kg single dose,0/5
same,Survival Ratio 7 Days After Infection,[45]; 8 mg/kg single dose,2/5
